Measurements taken from patent US8257965B2, “Arrays of biological membranes and methods and use thereof” (Corning Incorporated, priority 2001, dated 2012).
Blank lines part the entries; values can stand above or below the compound they belong to.

Assays:
[1] = target: Gi2 (Homo sapiens, UniProt P04899); conditions: unactivated form, reconstituted vesicle systems (McEwen et al.); cited from earlier work
[2] = target: Gi1 (Homo sapiens, UniProt P63096); conditions: unactivated form, reconstituted vesicle systems (McEwen et al.); cited from earlier work
Sequence of Gi1 (P63096 whole entry): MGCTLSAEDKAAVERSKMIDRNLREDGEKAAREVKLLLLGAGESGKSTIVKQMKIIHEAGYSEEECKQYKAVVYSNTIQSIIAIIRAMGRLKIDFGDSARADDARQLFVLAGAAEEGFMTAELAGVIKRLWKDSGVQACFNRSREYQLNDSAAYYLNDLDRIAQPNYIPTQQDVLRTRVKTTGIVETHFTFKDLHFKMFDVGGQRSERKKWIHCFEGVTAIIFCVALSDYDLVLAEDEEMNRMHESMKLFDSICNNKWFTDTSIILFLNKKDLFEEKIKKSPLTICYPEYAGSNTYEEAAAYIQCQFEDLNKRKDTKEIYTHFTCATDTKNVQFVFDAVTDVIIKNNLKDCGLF

[3] = target: Gs (Homo sapiens, UniProt P63092); conditions: unactivated form, reconstituted vesicle systems (McEwen et al.); cited from earlier work
Sequence of Gs (P63092 whole entry): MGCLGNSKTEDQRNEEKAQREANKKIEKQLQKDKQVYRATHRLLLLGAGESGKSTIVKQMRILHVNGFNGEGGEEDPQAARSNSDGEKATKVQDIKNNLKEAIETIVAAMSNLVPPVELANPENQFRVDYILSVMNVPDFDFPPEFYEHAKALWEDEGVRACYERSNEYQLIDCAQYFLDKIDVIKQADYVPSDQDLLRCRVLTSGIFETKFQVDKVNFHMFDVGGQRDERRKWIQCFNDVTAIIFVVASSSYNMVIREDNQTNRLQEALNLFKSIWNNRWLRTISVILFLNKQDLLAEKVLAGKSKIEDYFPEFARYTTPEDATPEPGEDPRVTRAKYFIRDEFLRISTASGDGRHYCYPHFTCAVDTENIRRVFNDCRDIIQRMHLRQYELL

[4] = target: Go (Homo sapiens, UniProt P09471); conditions: unactivated form, reconstituted vesicle systems (McEwen et al.); cited from earlier work
Sequence of Go (P09471 whole entry): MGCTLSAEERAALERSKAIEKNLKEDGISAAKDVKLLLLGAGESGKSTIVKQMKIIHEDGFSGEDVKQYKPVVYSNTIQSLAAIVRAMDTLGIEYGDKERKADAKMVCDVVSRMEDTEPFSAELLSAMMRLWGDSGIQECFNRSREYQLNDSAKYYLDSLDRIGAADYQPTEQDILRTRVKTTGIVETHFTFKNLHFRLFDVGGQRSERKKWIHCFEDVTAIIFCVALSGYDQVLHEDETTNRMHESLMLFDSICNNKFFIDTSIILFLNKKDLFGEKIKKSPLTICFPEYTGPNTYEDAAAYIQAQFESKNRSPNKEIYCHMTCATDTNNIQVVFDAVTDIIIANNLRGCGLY

[5] = target: T1, neurotensin receptor subtype 1 (NTR1) (Homo sapiens, UniProt P30989); assay: Competition binding of BT-neurotensin to NTR1 receptor arrays on CMT-GAPS slides; conditions: BT-NT 2 nM, unlabeled ligand 1 μM
T1 construct: purchased Perkin Elmer Life Science (Boston, Mass.)
T1 sequence (P30989 whole entry): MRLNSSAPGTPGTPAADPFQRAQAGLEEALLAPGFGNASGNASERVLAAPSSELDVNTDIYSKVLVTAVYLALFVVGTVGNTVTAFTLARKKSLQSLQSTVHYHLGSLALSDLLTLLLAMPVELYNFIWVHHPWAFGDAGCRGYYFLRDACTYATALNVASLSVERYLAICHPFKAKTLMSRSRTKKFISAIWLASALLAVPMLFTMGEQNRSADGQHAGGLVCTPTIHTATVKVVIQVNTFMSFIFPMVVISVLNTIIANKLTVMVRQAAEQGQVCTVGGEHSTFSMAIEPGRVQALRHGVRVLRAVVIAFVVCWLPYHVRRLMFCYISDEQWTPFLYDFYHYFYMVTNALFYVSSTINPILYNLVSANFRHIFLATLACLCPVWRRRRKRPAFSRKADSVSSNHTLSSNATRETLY

[6] = target: T2, α2A (Homo sapiens, UniProt P08913); conditions: known value; cited from earlier work
T2 sequence (P08913 1-465): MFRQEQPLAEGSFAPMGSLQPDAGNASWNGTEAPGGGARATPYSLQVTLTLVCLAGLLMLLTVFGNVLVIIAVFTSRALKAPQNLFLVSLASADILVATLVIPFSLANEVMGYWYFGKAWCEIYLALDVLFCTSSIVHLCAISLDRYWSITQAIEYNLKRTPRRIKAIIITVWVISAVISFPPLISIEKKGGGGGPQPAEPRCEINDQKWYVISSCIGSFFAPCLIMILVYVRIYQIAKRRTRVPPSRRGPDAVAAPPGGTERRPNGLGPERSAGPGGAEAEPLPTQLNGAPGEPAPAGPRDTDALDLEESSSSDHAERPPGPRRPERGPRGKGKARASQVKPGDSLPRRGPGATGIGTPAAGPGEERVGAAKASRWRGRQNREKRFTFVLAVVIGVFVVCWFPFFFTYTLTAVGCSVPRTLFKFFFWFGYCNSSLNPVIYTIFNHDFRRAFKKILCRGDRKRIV

[7] = target: β1 (Homo sapiens, UniProt P08588); assay: Family-specific adrenergic receptor array, competition with BODIPY-TMR-CGP12177; type: binding
Sequence of β1 (P08588 whole entry): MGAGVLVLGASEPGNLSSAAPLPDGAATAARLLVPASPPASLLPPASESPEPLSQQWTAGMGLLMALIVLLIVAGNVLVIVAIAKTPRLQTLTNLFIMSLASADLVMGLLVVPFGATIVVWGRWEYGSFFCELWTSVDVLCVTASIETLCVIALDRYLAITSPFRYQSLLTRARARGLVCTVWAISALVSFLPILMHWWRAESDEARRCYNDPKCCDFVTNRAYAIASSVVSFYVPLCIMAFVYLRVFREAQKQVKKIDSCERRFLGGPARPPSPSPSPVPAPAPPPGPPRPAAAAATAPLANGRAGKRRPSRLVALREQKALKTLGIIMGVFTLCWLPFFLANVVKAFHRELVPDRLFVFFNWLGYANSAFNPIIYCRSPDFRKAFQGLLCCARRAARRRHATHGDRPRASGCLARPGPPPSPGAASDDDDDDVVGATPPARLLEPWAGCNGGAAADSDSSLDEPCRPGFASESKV
Description: FIGS. 9A, 9B and 9C illustrate GPCR theme arrays used to differentiate the selectivity of compounds of interest to receptors relating to a single subfamily. Multiple arrays of β1, β2 and α2A were fabricated on an APTES-modified gold surface. Within each array there were three columns of five replicates, corresponding to β1, β2 and α2A from the left to right column, respectively. The array incubated with 5 nM BT-CGP only was used as positive control (FIG. 9A). […] Three receptors belonging to the same family, adrenergic receptors, were arrayed within a single grid, and replicates of this grid were arrayed on a single slide. The receptors were β1, β2 and α2A, respectively.

Sequence of Gi2 (P04899 whole entry): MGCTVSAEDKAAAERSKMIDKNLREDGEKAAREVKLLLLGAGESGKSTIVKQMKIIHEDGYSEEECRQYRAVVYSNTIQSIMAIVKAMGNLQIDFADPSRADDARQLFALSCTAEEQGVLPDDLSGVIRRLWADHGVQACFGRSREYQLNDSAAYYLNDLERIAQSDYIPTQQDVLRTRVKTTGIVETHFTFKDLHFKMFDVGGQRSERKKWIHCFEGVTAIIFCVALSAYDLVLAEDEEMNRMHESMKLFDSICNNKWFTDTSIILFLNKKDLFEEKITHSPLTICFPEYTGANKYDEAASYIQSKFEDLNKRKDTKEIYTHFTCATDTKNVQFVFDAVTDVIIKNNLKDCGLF

Compound: BODIPY-FL-GTPγS
Kd [1]: 0.3 µM
Kd [2]: 0.15 µM
Kd [3]: 0.07 µM
Kd [4]: 0.006 µM

effect on intensities of NTR1 spots (inhibition of BT-NT binding) [5]: no significant decrease
Compound: CC(C)(C)NCC(O)COc1cccc2[nH]c(=O)[nH]c12 (centres unmarked) [CGP12177]

fluorescence intensity of the β1 receptors ([7]; 5 nM BODIPY-TMR-CGP12177, 10 nM ICI118551): remains almost at the same level
fluorescence intensity of β1 ([7]; 5 nM BODIPY-TMR-CGP12177, 500 nM ICI118551): dramatically decreases
Compound: Cc1ccc(OCC(O)C(C)NC(C)C)c2c1CCC2 (centres unmarked) [ICI 118551]
Ki [6]: > 10 µM
